Like-named read-outs stand apart in the source and are kept apart here.
Experiments:
rats [1] = assay: Ulcerous activity (modified method of Colot); assay type: in vivo, female EOPS rats; conditions: 83 mg/kg oral daily
Protocol: Ulcerous activity was determined according to a modification of the method by Colot (Technical notions of general pharmacology, 1972) in the case of femal EOPS rats of approximately 150 g. The animals were left without absolutely any food, while the test products were orally administered on a daily basis in suspension in 2% Tween at a volume of 0.5 ml/100 g. The animals were killed under chloroform and the stomachs were removed. Ulcerous activity was established by means of an index taking into account the degree of ulceration and the percentage of animals effected.
In the table given below, a comparison is shown between the results obtained with niflumic acid and product No. 1.

rats [2] = assay: Anti-inflammatory activity: carragenic test (carragenine-induced edema of the hind leg); assay type: in vivo, male rats; conditions: Rattus norvegicus, oral, read-out: ED 50
Protocol: All products were administered in gummy julep except No. 1 and No. 13 which were administered in suspension in Tween. The anti-inflammatory activity was determined by the carragenic test with male rats. Inflammation was induced by the injection of 0.1 ml of a 0.5% suspension of carragenine in a physiological serum into the muscular fasciculus of the metatarsal region of the hind leg of the animal. The substance to be tested was orally administered simultaneously with the carragenine. The edema was measured by phethysmography 1, 2, 3, 4, 5 and 6 hours after the administration of the carragenine.
**50 mg/kg No. 13 which were administered in suspension in Tween.

mice = assay: Analgesic activity: protection against abdominal twisting induced by phenylbenzoquinone (PBQ); assay type: in vivo; conditions: Mus musculus, oral, read-out: AD 50 (the source's name)
Protocol: All products were administered in gummy julep except No. 1 and No. 13 which were administered in Tween. The analgesic activity were determined in mice by utilizing as a nociceptive agent, phenylbenzoquinone (PBQ) (modification of the method by Siegmund and co-workers Proc. Soc. Exp. Biol. Med. 1957, 95, 729-31). The process consists of seeking a possible protection for the mouse vis-a-vis abdominal twisting and stretching of the hind legs induced by the parental injection of PBQ. 25 minutes after having orally administered the products to be tested in suspension in 2% Tween 80 or in 6% gummy julep, the PBQ solution was injected and the mice were observed after 5 minutes during the following 5 minutes. For certain products, AD 50 is presented as a measure of activity. […]

[3] = Oral toxicity in mice (LDO, LD50); assay type: in vivo; conditions: mouse, in vivo, gummy julep (No. 1 and 13 in Tween), 2 weeks observation
Protocol: This toxicity is estimated by the calculation of the lethal dose of 50 (LD 50) which determines the fatal dose of the substance for 50% of the animals tested. This determination was effected in accordance with a modification of the method by Litchfield and Wilcoxon (J. Pharmacol. Exp. Therap. 1949, 96, 99-113).
Swiss mice without specific pathogenic organisms were kept in air conditioned rooms 24 to 48 hours before the start of the tests. They were divided into batches of 5.male. and 5.female.. With the animals unfed for 24 hours, the substances were intragastically administered in suspension in 2% Tween 80 or in 6% gummy julep in a volume equivalent to 0.1 ml per 10 g of the weight of the animal.
They remained under observation for two weeks before being killed and subjected to an autopsy.
All products were administered in gummy julep except No. 1 and No. 13 which were administered in Tween. The analgesic activity were determined in mice by utilizing as a nociceptive agent, phenylbenzoquinone (PBQ) (modification of the method by Siegmund and co-workers Proc. Soc. Exp. Biol. Med. 1957, 95, 729-31). The process consists of seeking a possible protection for the mouse vis-a-vis abdominal twisting and stretching of the hind legs induced by the parental injection of PBQ. 25 minutes after having orally administered the products to be tested in suspension in 2% Tween 80 or in 6% gummy julep, the PBQ solution was injected and the mice were observed after 5 minutes during the following 5 minutes. For certain products, AD 50 is presented as a measure of activity.

For `O=C(O)c1cccnc1Nc1cccc(C(F)(F)F)c1` [Niflumic acid], the “IA: Acute ulceration index” value (rats [1]; 1 day) was 8, the “IC: Ulceration index on the way of cicatrization” value (rats [1]; 1 day) was 380 and the “IT: Total index” value (rats [1]; 1 day) was 388. For the same compound, the “IA: Acute ulceration index” value (rats [1]; 3 days) was 16, the “IC: Ulceration index on the way of cicatrization” value (rats [1]; 3 days) was 206 and the “IT: Total index” value (rats [1]; 3 days) was 222. For the same compound, the ED50 (rats [2]; 2H) was 34 mg/kg, the ED50 (rats [2]; 4H) was 125 mg/kg and the ED50 (mice) was 17 mg/kg. The LD50 at 336 h [3] was about 350 mg/kg.

Source: patent US4122202A, “Amino-3H-isobenzofuranones N-substitutes and their therapeutic application” (Societe Cortial, priority 1975, dated 1978)
